Where two headings read alike, the source gives them in different places. Blank lines part the entries; values can stand above or below the compound they belong to.
What was measured:
SH-SY5Y cells [1] = test: MTT cell viability assay, SH-SY5Y cells; assay type: cell-based, human; settings: for Cell viability with inhibitor-containing Hcy solution compared to Hcy alone (MTT): Hcy 2 mg/mL with EGCG 0.1 mM or TA 0.01 mM
Protocol: SH-SY5Y cells (ATCC CRL-2266) or HEK293 cells (ATCC® CRL-1573) were cultured (2×10^5 cells/mL) in DMEM/Nutrient Mixture F12 (Ham's; 1:1) supplemented with 10% fetal bovine serum (FBS) in 96-well tissue microplates (100 μL per well) and allowed to adhere overnight at 37° C. Half of each plate was plated with cells, with the other half later serving as a control containing solutions alone. The treatment solutions were prepared as follows: Hcy or methionine were dissolved at 90° C. and at various concentrations in cell media without FBS, followed by gradual cooling of the solutions. For solutions containing polyphenols, Hcy (final concentration of 2 mg/mL) was similarly dissolved in cell media and mixed with EGCG or TA (final concentration of 0.1 mM and 0.01 mM, respectively, stock solution dissolved in cell medium) before gradual cooling. The medium was replaced and cells were treated with the solutions (100 μL per well), followed by overnight incubation at 37° C. Control cells were incubated with medium that was treated in the same manner (without Hcy). Controls of media supplemented with the inhibitors, without Hcy, were examined as well. Cell viability was evaluated using the 3-(4,5-dimethylthiazolyl-2)-2,5-diphenyltetrazolium bromide (MTT) assay. Briefly, 10 μL of 5 mg/mL MTT dissolved in PBS was added to each well. After a 4 hours incubation at 37° C. 100 μL of extraction buffer […] dissolved in a mixture of 50% DMF and 50% DDW (pH 4.7)] was added to each well, and the plates were further incubated at 37° C. for 30 min. Finally, color intensity was measured using an ELISA reader at 570 nm. Blank measurements of the solutions without cells were respectively subtracted. The data points are presented as mean±SD. For inhibitors and methionine controls, two-tailed Student's t test was performed when two groups were compared.

HEK293 cells = test: MTT cell viability assay, HEK293 cells; assay type: cell-based; settings: HEK293 non-neuronal cell line, 24 hours
Protocol: SH-SY5Y cells (ATCC CRL-2266) or HEK293 cells (ATCC® CRL-1573) were cultured (2×10^5 cells/mL) in DMEM/Nutrient Mixture F12 (Ham's; 1:1) supplemented with 10% fetal bovine serum (FBS) in 96-well tissue microplates (100 μL per well) and allowed to adhere overnight at 37° C. Half of each plate was plated with cells, with the other half later serving as a control containing solutions alone. […] For solutions containing polyphenols, Hcy (final concentration of 2 mg/mL) was similarly dissolved in cell media and mixed with EGCG or TA (final concentration of 0.1 mM and 0.01 mM, respectively, stock solution dissolved in cell medium) before gradual cooling. The medium was replaced and cells were treated with the solutions (100 μL per well), followed by overnight incubation at 37° C. Control cells were incubated with medium that was treated in the same manner (without Hcy). Controls of media supplemented with the inhibitors, without Hcy, were examined as well. Cell viability was evaluated using the 3-(4,5-dimethylthiazolyl-2)-2,5-diphenyltetrazolium bromide (MTT) assay. Briefly, 10 μL of 5 mg/mL MTT dissolved in PBS was added to each well. After a 4 hours incubation at 37° C. […] Finally, color intensity was measured using an ELISA reader at 570 nm. […]

SH-SY5Y cells [2] = test: Annexin V and propidium iodide apoptosis assay (flow cytometry); assay type: cell-based, human
Protocol: SH-SY5Y cells were cultured at 2×10^5 cells/mL in 24-well plates in DMEM/Nutrient Mixture F12 (Ham's; 1:1) supplemented with 10% FBS and were allowed to adhere overnight at 37° C. The treatment solutions containing Hcy and methionine were prepared as described above for the MTT assay. Cells were treated with the solutions followed by overnight incubation at 37° C. Control cells were incubated with medium that was treated in the same manner without Hcy. The apoptotic effect was evaluated using the MEBCYTO Apoptosis kit (MBL International), according to the manufacturer's instructions. Briefly, the adherent cells were trypsinized, detached and combined with floating cells from the incubated growth medium. Cells were then centrifuged and washed once with PBS and once with binding buffer. Cells were subsequently incubated with annexin V-FITC and PI for 15 min in the dark, resuspended in 200 μL binding buffer and analyzed by flow cytometry using a single laser-emitting excitation light at 488 nm. Data from at least 10^4 cells were acquired using the BD FACSort and the CellQuest software (BD Biosciences). Analysis was performed using the FlowJo software (TreeStar, version 14).

SH-SY5Y cells [3] = test: ProteoStat staining, confocal microscopy of treated SH-SY5Y cells; assay type: cell-based, human; settings: Hcy assemblies 2 mg/mL, 4 hours
Protocol: SH-SY5Y cells: 2×10^5 cells/mL were cultured in DMEM/Nutrient Mixture F12 (Ham's; 1:1) supplemented with 10% FBS in 24-well plate on glass slides coated with 0.01% Poly-L-Lysine. When reaching ˜70-80% confluency, cells were treated with Hcy (2 mg/mL dissolved at 90° C. in cell media without FBS, followed by gradual cooling of the solution). After 4 hours of incubation, the cells were immediately supplemented with ProtesoStat dye diluted 1:250 in ProteoStat assay buffer followed by incubation for 15 min at room temperature protected from light. Cells were imaged using Leica TCS SP8 laser confocal microscope with ×63 1.4 NA or ×100 1.4 NA oil objectives. An argon laser with 488 excitation line was used for ProteoStat (emission wavelength, 500-600 nm).

cys4Δ yeast strain [4] = assay type: cell-based, Saccharomyces cerevisiae
Protocol: The cys4 gene was disrupted in wild-type (WT) yeast strain (BY4741) via homologous recombination using PCR fragments amplified from the plasmid pFA6a-KanMX6 as a template with primer DL154:
(§1) WT and cys4Δ strains were grown overnight at 30° C. Unless otherwise specified, the strains were grown on synthetic defined medium (SD) containing 20 mg/L L-methionine, 20 mg/L L-histidine monohydrochloride monohydrate, 20 mg/L uracil and 30 mg/L L-leucine. Cysteine was added to a final concentration of 13 mg/L. Hcy was added at the indicated concentrations.
For spotting assays, strains were diluted to 6.25*10^7 cells/mL and then 5-fold serially diluted and spotted on the indicated plates. Plates were incubated at 30° C. for 2-3 days.
(§2) For OD600 measurements, strains were diluted to OD600 0.01. 200 μL of cells were platted on 96 wells plates and incubated at 30° C. for 30 hours with continuous shaking. OD600 was measured using Tecan™ SPARK 10M plate reader.
(§3) The percentage of growth analysis (FIG. 10F) represents the OD600 levels following 27 hours of growth in the plate reader. The percentage of growth represents the growth under the indicated conditions, with or without 0.3 mM TA, compared to the growth of WT without TA.

cys4Δ yeast strain [5] = test: Aggregation level assay in yeast (ProteoStat, flow cytometry); assay type: cell-based, Saccharomyces cerevisiae; settings: cys4Δ with 100 mg/L Hcy compared to WT and to mutant without Hcy
Protocol: For each sample, 2×10^6 cells/mL of logarithmic cells were resuspended with ProteoStat dye (Enzo Life Sciences). Cells were incubated for 15 min at room temperature protected from light. Flow cytometry was preformed using Stratedigm S1000EXi and the CellCapTure software (Stratedigm, San Jose, Calif.). Live cells were gated (P1) by forward scatter and side scatter. Fluorescence channels for FITC (530/30) and PE-Cy5 (676/29) were used utilizing a 488 nm laser source. A total of 50,000 events were acquired for each sample. Analyses were performed using the FlowJo software (TreeStar, version 14).

β-amyloid1-42 = target: T1, β-amyloid1-42 (Homo sapiens, UniProt P05067); test: In-vitro seeding of β-amyloid1-42 by Hcy assemblies (ThT binding assay); assay type: biochemical; settings: 20% v/v pre-formed Hcy assemblies (2, 5, 10 mg/mL stocks), 3 μM β-amyloid1-42 monomers, 37° C.
T1 construct: purchased rPeptide
Protocol: Hcy was dissolved at 90° C. in PBS followed by gradual cooling of the solution. […] (rPeptide) was dissolved in DMSO to a concentration of 120 μM. The monomeric protein was mixed with pre-formed 20% v/v Hcy assemblies (taken from 10, 5 or 2 mg/mL stock solutions), or with an equivalent volume of PBS as a control, to a final concentration of 3 μM β-amyloid1-42 ThT was added to a final concentration of 20 μM. Aggregation was monitored using Tecan™ Infinite 200 PRO fluorescence plate reader over time at 37° C. Blank measurements of Hcy only (without β-amyloid) were respectively subtracted.

[6] = TEM of metabolite self-assembly; assay type: physicochemical; settings: dissolved at 90° C., gradual cooling
Protocol: Hcy was dissolved at 90° C. in PBS at various concentrations followed by gradual cooling of the solution. […] Subsequently, 10 μL samples were placed on 400-mesh copper grids. After 2 min, excess fluids were removed. Samples were viewed using a JEOL 1200EX electron microscope operating at 80 kV.

[7] = ThT binding assay of metabolite self-assembly; assay type: physicochemical; settings: emission 480 nm
Protocol: Hcy was dissolved at 90° C. in PBS to a final concentration of 10, 5 and 2 mg/mL and maintained at 90° C. until the beginning of the measurement. Samples containing polyphenols were immediately mixed with the inhibitors. […] As a control, Hcy was diluted with PBS alone to the same final concentrations. […] Next, the solutions were plated in a black 96-well, clear, and flat bottom microplate (Greiner) and self-assembly kinetics were recorded over time at room temperature (uncontrolled gradual cooling of the solutions) with short shaking before each read. […] Following an overnight incubation at room temperature with gentle rotation (uncontrolled gradual cooling of solutions), ThT emission signal at 480 nm (excitation at 450 nm) was measured at room temperature with short shaking before each read and using a Tecan™ Infinite 200 PRO plate reader, gain 90.

Hcy fibrils [8] = test: ThT binding assay, inhibition of Hcy self-assembly by polyphenols; assay type: biochemical; settings: 1 mM EGCG or 0.1 mM TA added at timepoint zero; Hcy in PBS; emission 480 nm, excitation 440 nm
Protocol: Hcy was dissolved at 90° C. in PBS to a final concentration of 10, 5 and 2 mg/mL and maintained at 90° C. until the beginning of the measurement. Samples containing polyphenols were immediately mixed with the inhibitors. EGCG or TA (final concentration of 1 mM and 0.1 mM, respectively). As a control, Hcy was diluted with PBS alone to the same final concentrations. ThT in PBS was added to a final concentration of 20 μM for 5 and 10 mg/ml Hcy or 40 μM for 2 mg/ml Hcy. Next, the solutions were plated in a black 96-well, clear, and flat bottom microplate (Greiner) and self-assembly kinetics were recorded over time at room temperature (uncontrolled gradual cooling of the solutions) with short shaking before each read. ThT emission data at 480 nm (excitation at 440 nm), were measured using a Tecan™ SPARK 10 M plate reader, gain of 100 for 2 mg/ml, and using a Tecan™ Infinite 200 PRO plate reader, gain of 90 for 5 and 10 mg/ml.

Hcy fibrils [9] = test: TEM of pre-formed solutions of Hcy with polyphenols; settings: Hcy 2 mg/mL + 1 mM EGCG or 0.1 mM TA
Protocol: Hcy was dissolved at 90° C. in PBS at various concentrations followed by gradual cooling of the solution. Where indicated, EGCG or TA (final concentration of 1 mM and 0.1 mM, respectively) were added before gradual cooling. Subsequently, 10 μL samples were placed on 400-mesh copper grids. After 2 min, excess fluids were removed. Samples were viewed using a JEOL 1200EX electron microscope operating at 80 kV.

WT yeast strain (BY4741) = test: Yeast growth assay, WT strain; assay type: cell-based, Saccharomyces cerevisiae; settings: 0.3 mM TA, SD with 13 mg/L cysteine and 100 mg/L Hcy, 27 hours
Protocol: as §1, §2, §3

T1 sequence (P05067 672-713 limits assumed): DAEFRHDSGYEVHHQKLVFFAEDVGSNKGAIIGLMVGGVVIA

Structure (SMILES): NC(CCS)C(=O)O (centres unmarked) [Hcy, 2-Amino-4-sulfanylbutanoic acid]
Cytotoxicity (MTT cell viability) (SH-SY5Y cells [1]): dose-dependent cytotoxicity | Cell death (MTT) (SH-SY5Y cells [1]; SH-SY5Y, 24-hour treatment with pre-formed Hcy assemblies in cell medium): up to 80% | Cytotoxicity (MTT cell viability) (HEK293 cells): no significant toxicity | Apoptotic activity (annexin V / PI) (SH-SY5Y cells [2]): stimulated apoptotic activity in a concentration-dependent manner | Detection of amyloid-like structures in cells (ProteoStat) (SH-SY5Y cells [3]): amyloid-like structures in treated SH-SY5Y cells | Growth sensitivity to Hcy supplied in the growth medium (cys4Δ yeast strain [4]; cys4Δ compared to WT, SD media with Hcy at different concentrations): sensitivity to Hcy supplied in the growth medium was observed | Degree of aggregation upon Hcy feeding (ProteoStat flow cytometry) (cys4Δ yeast strain [5]): significantly higher degree of aggregation | Cross-seeding of β-amyloid1-42 aggregation (ThT signal) (β-amyloid1-42): induced β-amyloid1-42 aggregation in a concentration-dependent manner | Formation of amyloid-like fibrils (TEM) [6]: formed amyloid-like fibrils | ThT fluorescence of self-assembly [7]: higher metabolite concentrations showing stronger ThT fluorescence

Formation of amyloid-like fibrils (TEM) [6]: did not form amyloid-like fibrils | ThT fluorescence of self-assembly [7]: did not show a fluorescence signal
Structure (SMILES): CSCC[C@H](N)C(=O)O [methionine]
Cytotoxicity (MTT cell viability) (SH-SY5Y cells [1]; SH-SY5Y, 24-hour treatment, solutions prepared in cell medium): did not show any toxicity | Apoptotic activity (annexin V / PI) (SH-SY5Y cells [2]; SH-SY5Y, treated for 24 hours): did not show any apoptotic effect

Structure (SMILES): O=C(O[C@@H]1Cc2c(O)cc(O)cc2O[C@@H]1c1cc(O)c(O)c(O)c1)c1cc(O)c(O)c(O)c1 [EGCG, epigallocatechin gallate]
Inhibition of Hcy fibril formation, ThT fluorescence intensity over time (Hcy fibrils [8]): significant reduction in the ThT fluorescence intensity curves | Structures seen by TEM in mixture of Hcy with polyphenol (Hcy fibrils [9]): no structures were formed | Cell viability, inhibitors alone (MTT) (SH-SY5Y cells [1]; SH-SY5Y, 24 hours, EGCG 0.1 mM or TA 0.01 mM without Hcy): did not affect cell viability | Cell viability with inhibitor-containing Hcy solution compared to Hcy alone (MTT) (SH-SY5Y cells [1]; SH-SY5Y, 24 hours): significant increase in cell viability

Structure (SMILES): O=C(OC[C@H]1O[C@@H](OC(=O)c2cc(O)c(O)c(OC(=O)c3cc(O)c(O)c(O)c3)c2)[C@H](OC(=O)c2cc(O)c(O)c(OC(=O)c3cc(O)c(O)c(O)c3)c2)[C@@H](OC(=O)c2cc(O)c(O)c(OC(=O)c3cc(O)c(O)c(O)c3)c2)[C@@H]1OC(=O)c1cc(O)c(O)c(OC(=O)c2cc(O)c(O)c(O)c2)c1)c1cc(O)c(O)c(OC(=O)c2cc(O)c(O)c(O)c2)c1 [TA, tannic acid]
Inhibition of Hcy fibril formation, ThT fluorescence intensity over time (Hcy fibrils [8]): significant reduction in the ThT fluorescence intensity curves | Structures seen by TEM in mixture of Hcy with polyphenol (Hcy fibrils [9]): no structures were formed | Cell viability with inhibitor-containing Hcy solution compared to Hcy alone (MTT) (SH-SY5Y cells [1]; SH-SY5Y, 24 hours): significant increase in cell viability | Cell growth with TA (percentage of growth, OD600) (cys4Δ yeast strain [4]; cys4Δ, 0.3 mM TA, SD with 13 mg/L cysteine and 100 mg/L Hcy, 27 hours): significantly improved the cell growth | Cell growth with TA (percentage of growth, OD600) (WT yeast strain (BY4741)): no effect
